Test results reported in ChEMBL document CHEMBL6114980, “Single or double lipid-modified ultra-short antimicrobial peptides for treating infections caused by resistant bacteria” (Eur J Med Chem, 2025).

Experiments:
Type in all cases: functional
Acinetobacter baumannii [1] = test: Antibacterial activity against Acinetobacter baumannii ATCC 19606 assessed as reduction in bacterial growth incubated for 18 to 24 hrs by broth microdilution method; details: time 18-24 hrs
Klebsiella pneumoniae [2] = test: Antibacterial activity against Klebsiella pneumoniae ATCC 700603 assessed as reduction in bacterial growth incubated for 18 to 24 hrs by broth microdilution method; details: time 18-24 hrs
Escherichia coli [3] = test: Antibacterial activity against Escherichia coli ATCC 25922 assessed as reduction in bacterial growth incubated for 18 to 24 hrs by broth microdilution method; details: time 18-24 hrs
Pseudomonas aeruginosa [4] = test: Antibacterial activity against Pseudomonas aeruginosa ATCC 27853 assessed as reduction in bacterial growth incubated for 18 to 24 hrs by broth microdilution method; details: time 18-24 hrs
Staphylococcus aureus [5] = test: Antibacterial activity against methicillin-resistant Staphylococcus aureus ATCC 33591 assessed as reduction in bacterial growth incubated for 18 to 24 hrs by broth microdilution method; details: time 18-24 hrs
Staphylococcus aureus [6] = test: Antibacterial activity against methicillin-resistant Staphylococcus aureus 75 assessed as reduction in bacterial growth incubated for 18 to 24 hrs by broth microdilution method; details: time 18-24 hrs
Staphylococcus aureus [7] = test: Antibacterial activity against Staphylococcus aureus 125 assessed as reduction in bacterial growth incubated for 18 to 24 hrs by broth microdilution method; details: time 18-24 hrs
Staphylococcus aureus [8] = test: Antibacterial activity against Staphylococcus aureus 794 assessed as reduction in bacterial growth incubated for 18 to 24 hrs by broth microdilution method; details: time 18-24 hrs
Enterococcus faecalis = test: Antibacterial activity against Enterococcus faecalis ATCC 29212 assessed as reduction in bacterial growth incubated for 18 to 24 hrs by broth microdilution method; details: time 18-24 hrs
[9] = tested on: Staphylococcus epidermidis; test: Antibacterial activity against Staphylococcus epidermidis ATCC 12228 assessed as reduction in bacterial growth incubated for 18 to 24 hrs by broth microdilution method; details: time 18-24 hrs
Staphylococcus aureus [10] = test: Antibacterial activity against Staphylococcus aureus ATCC 25923 assessed as reduction in bacterial growth incubated for 18 to 24 hrs by broth microdilution method; details: time 18-24 hrs
Acinetobacter baumannii [11] = test: Antibacterial activity against Acinetobacter baumannii 5444 assessed as reduction in bacterial growth incubated for 18 to 24 hrs by broth microdilution method; details: time 18-24 hrs
Acinetobacter baumannii [12] = test: Antibacterial activity against Acinetobacter baumannii 92359 assessed as reduction in bacterial growth incubated for 18 to 24 hrs by broth microdilution method; details: time 18-24 hrs
Escherichia coli [13] = test: Antibacterial activity against Escherichia coli 850 assessed as reduction in bacterial growth incubated for 18 to 24 hrs by broth microdilution method; details: time 18-24 hrs
Escherichia coli [14] = test: Antibacterial activity against Escherichia coli 780 assessed as reduction in bacterial growth incubated for 18 to 24 hrs by broth microdilution method; details: time 18-24 hrs
Pseudomonas aeruginosa [15] = test: Antibacterial activity against Pseudomonas aeruginosa 124 assessed as reduction in bacterial growth incubated for 18 to 24 hrs by broth microdilution method; details: time 18-24 hrs
Pseudomonas aeruginosa [16] = test: Antibacterial activity against Pseudomonas aeruginosa 6434N assessed as reduction in bacterial growth incubated for 18 to 24 hrs by broth microdilution method; details: time 18-24 hrs
Staphylococcus aureus [17] = test: Antibacterial activity against Staphylococcus aureus assessed as reduction in survival bacterial growth in presence of NaCl measured after 18 to 24 hrs (reference value: 8 microM); details: time 18-24 hrs
Staphylococcus aureus [18] = test: Antibacterial activity against Staphylococcus aureus assessed as reduction in survival bacterial growth in presence of Mgcl2 measured after 18 to 24 hrs (reference value: 8 microM); details: time 18-24 hrs
Staphylococcus aureus [19] = test: Antibacterial activity against Staphylococcus aureus assessed as reduction in survival bacterial growth in presence of ZnCl2 measured after 18 to 24 hrs (reference value: 8 microM); details: time 18-24 hrs
Staphylococcus aureus [20] = test: Antibacterial activity against Staphylococcus aureus assessed as reduction in survival bacterial growth in presence of KCl measured after 18 to 24 hrs (reference value: 8 microM); details: time 18-24 hrs
Staphylococcus aureus [21] = test: Antibacterial activity against Staphylococcus aureus assessed as reduction in survival bacterial growth in presence of FeCl3 measured after 18 to 24 hrs (reference value: 8 microM); details: time 18-24 hrs
Escherichia coli [22] = test: Antibacterial activity against Escherichia coli assessed as reduction in survival bacterial growth in presence of NaCl measured after 18 to 24 hrs (reference value: 2 microM); details: time 18-24 hrs
Escherichia coli [23] = test: Antibacterial activity against Escherichia coli assessed as reduction in survival bacterial growth in presence of MgCl2 measured after 18 to 24 hrs (reference value: 2 microM); details: time 18-24 hrs
Escherichia coli [24] = test: Antibacterial activity against Escherichia coli assessed as reduction in survival bacterial growth in presence of ZnCl2 measured after 18 to 24 hrs (reference value: 2 microM); details: time 18-24 hrs
Escherichia coli [25] = test: Antibacterial activity against Escherichia coli assessed as reduction in survival bacterial growth in presence of KCl measured after 18 to 24 hrs (reference value: 2 microM); details: time 18-24 hrs
Escherichia coli [26] = test: Antibacterial activity against Escherichia coli assessed as reduction in survival bacterial growth in presence of FeCl3 measured after 18 to 24 hrs (reference value: 2 microM); details: time 18-24 hrs
Escherichia coli [27] = test: Antibacterial activity against Escherichia coli assessed as reduction in survival bacterial growth by measuring fold change in presence of ZnCl2 measured after 18 to 24 hrs; details: time 18-24 hrs
Escherichia coli [28] = test: Antibacterial activity against Escherichia coli assessed as reduction in survival bacterial growth by measuring fold change in presence of MgCl2 measured after 18 to 24 hrs; details: time 18-24 hrs
Staphylococcus aureus [29] = test: Antibacterial activity against Staphylococcus aureus assessed as reduction in survival bacterial growth by measuring fold change in presence of MgCl2 measured after 18 to 24 hrs; details: time 18-24 hrs
Escherichia coli [30] = test: Antibacterial activity against Escherichia coli assessed as reduction in survival bacterial growth by measuring fold change in presence of NaCl measured after 18 to 24 hrs; details: time 18-24 hrs
Staphylococcus aureus [31] = test: Antibacterial activity against Staphylococcus aureus assessed as reduction in survival bacterial growth by measuring fold change in presence of NaCl measured after 18 to 24 hrs; details: time 18-24 hrs
Escherichia coli [32] = test: Bactericidal activity against Escherichia coli 25922 assessed as eradication of bacteria at 2 times MIC measured within 1 hr by time-kill assay relative to control
Klebsiella pneumoniae [33] = test: Antibacterial activity against Klebsiella pneumoniae ATCC 700603 infected in male BALB/c mouse lung infection model assessed as reduction in bacterial load at 5 mg/kg, ip measured after 6 to 36 hrs (reference value: 1.77 10^6CFU/mg); details: time 6-36 hrs

SMILES: CC(C)CCCCC(=O)N[C@@H](CCN)C(=O)N[C@H](C(=O)N[C@@H](CCN)C(=O)N[C@H]1CCNC(=O)[C@H]([C@@H](C)O)NC(=O)[C@H](CCN)NC(=O)[C@H](CCN)NC(=O)[C@H](CC(C)C)NC(=O)[C@@H](Cc2ccccc2)NC(=O)[C@H](CCN)NC1=O)[C@@H](C)O.CC[C@H](C)CCCCC(=O)N[C@@H](CCN)C(=O)N[C@H](C(=O)N[C@@H](CCN)C(=O)N[C@H]1CCNC(=O)[C@H]([C@@H](C)O)NC(=O)[C@H](CCN)NC(=O)[C@H](CCN)NC(=O)[C@H](CC(C)C)NC(=O)[C@@H](Cc2ccccc2)NC(=O)[C@H](CCN)NC1=O)[C@@H](C)O
- MIC (Acinetobacter baumannii [1]): 4 µM
- MIC (Klebsiella pneumoniae [2]): 4 µM
- MIC (Escherichia coli [3]): 2 µM
- MIC (Pseudomonas aeruginosa [4]): 4 µM
- MIC (Staphylococcus aureus [5]): 16 µM
- MIC (Staphylococcus aureus [6]): 16 µM
- MIC (Staphylococcus aureus [7]): 8 µM
- MIC (Staphylococcus aureus [8]): 16 µM
- MIC (Enterococcus faecalis): 128 µM
- MIC [9]: 8 µM
- MIC (Staphylococcus aureus [10]): 8 µM
- MIC (Acinetobacter baumannii [11]): 32 µM
- MIC (Acinetobacter baumannii [12]): 32 µM
- MIC (Escherichia coli [13]): 4 µM
- MIC (Escherichia coli [14]): 4 µM
- MIC (Pseudomonas aeruginosa [15]): 16 µM
- MIC (Pseudomonas aeruginosa [16]): 2 µM
- MIC (Staphylococcus aureus [17]): 128 µM
- MIC (Staphylococcus aureus [18]): 16 µM
- MIC (Staphylococcus aureus [19]): 8 µM
- MIC (Staphylococcus aureus [20]): 8 µM
- MIC (Staphylococcus aureus [21]): 8 µM
- MIC (Escherichia coli [22]): 2 µM
- MIC (Escherichia coli [23]): 2 µM
- MIC (Escherichia coli [24]): 1 µM
- MIC (Escherichia coli [25]): 2 µM
- MIC (Escherichia coli [26]): 2 µM
- fold change (FC) (Escherichia coli [27]): 2
- fold change (FC) (Escherichia coli [28]): 2
- fold change (FC) (Staphylococcus aureus [29]): 2
- fold change (FC) (Escherichia coli [30]): 16
- fold change (FC) (Staphylococcus aureus [31]): 16
- Activity (Escherichia coli [32]): 100%
- Activity (Klebsiella pneumoniae [33]): 1.54 10^4CFU/mg
